Laboratory results: article PMC9851200, “Multiparameter phenotypic screening for endogenous TFEB and TFE3 translocation identifies novel chemical series modulating lysosome function” (Autophagy, 2022)
Read-outs that look alike come from different tables or passages of the source.

Experiments:
Format in all cases: binding
[1] = molecular target: kinases (KINOMEscan panel) (Homo sapiens, UniProt P10721, L576P); settings: KIT(L576P); NEW KINOMEscan
[2] = molecular target: kinases (KINOMEscan panel) (Homo sapiens, UniProt P43405); settings: SYK; NEW KINOMEscan
[3] = molecular target: kinases (KINOMEscan panel) (Homo sapiens, UniProt P49137)
[4] = molecular target: T1, kinases (KINOMEscan panel) (Homo sapiens, UniProt Q8IVH8); settings: NEW KINOMEscan
T1 sequence (Q8IVH8 1-894): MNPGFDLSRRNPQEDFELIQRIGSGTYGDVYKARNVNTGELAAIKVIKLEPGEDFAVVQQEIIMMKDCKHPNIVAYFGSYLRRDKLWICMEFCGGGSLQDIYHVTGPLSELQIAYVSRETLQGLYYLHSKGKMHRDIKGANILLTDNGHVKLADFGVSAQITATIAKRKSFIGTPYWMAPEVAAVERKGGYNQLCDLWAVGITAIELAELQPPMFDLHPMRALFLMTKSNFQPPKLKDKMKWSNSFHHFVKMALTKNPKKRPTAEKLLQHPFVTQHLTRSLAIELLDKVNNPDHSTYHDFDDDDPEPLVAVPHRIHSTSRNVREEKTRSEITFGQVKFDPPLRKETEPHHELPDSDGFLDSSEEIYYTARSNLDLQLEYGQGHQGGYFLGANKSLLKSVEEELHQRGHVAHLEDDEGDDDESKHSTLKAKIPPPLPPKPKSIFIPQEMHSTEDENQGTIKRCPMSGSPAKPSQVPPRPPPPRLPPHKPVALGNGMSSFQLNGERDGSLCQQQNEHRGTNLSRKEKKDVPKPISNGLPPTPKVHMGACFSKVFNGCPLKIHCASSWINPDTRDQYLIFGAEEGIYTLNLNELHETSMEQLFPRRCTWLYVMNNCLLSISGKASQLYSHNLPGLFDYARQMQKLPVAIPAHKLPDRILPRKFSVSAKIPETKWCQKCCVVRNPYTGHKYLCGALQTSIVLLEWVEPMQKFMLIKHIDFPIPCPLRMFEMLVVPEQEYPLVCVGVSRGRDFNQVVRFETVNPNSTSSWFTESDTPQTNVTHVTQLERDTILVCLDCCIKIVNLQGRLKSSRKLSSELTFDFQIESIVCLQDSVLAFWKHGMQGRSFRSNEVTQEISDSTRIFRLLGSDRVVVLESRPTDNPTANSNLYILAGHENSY

[5] = molecular target: T2, kinases (KINOMEscan panel) (Homo sapiens, UniProt Q8NE63); settings: kinase HIPK4; NEW KINOMEscan
T2 sequence (Q8NE63 1-616): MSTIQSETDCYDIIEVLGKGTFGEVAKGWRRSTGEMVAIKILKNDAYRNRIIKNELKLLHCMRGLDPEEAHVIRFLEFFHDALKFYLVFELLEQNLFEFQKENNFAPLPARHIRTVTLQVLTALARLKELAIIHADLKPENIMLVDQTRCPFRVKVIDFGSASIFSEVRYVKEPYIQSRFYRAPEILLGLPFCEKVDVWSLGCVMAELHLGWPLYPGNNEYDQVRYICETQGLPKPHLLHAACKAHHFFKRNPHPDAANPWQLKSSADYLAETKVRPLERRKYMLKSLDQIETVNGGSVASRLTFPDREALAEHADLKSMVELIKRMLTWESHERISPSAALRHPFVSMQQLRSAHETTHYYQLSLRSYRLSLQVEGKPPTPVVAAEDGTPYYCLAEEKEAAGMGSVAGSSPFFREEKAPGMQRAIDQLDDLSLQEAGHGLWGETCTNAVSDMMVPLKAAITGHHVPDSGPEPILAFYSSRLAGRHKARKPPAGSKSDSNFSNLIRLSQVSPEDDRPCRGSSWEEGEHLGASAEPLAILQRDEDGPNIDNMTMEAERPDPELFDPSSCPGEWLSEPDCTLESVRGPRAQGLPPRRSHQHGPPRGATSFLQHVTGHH

[6] = molecular target: T3, kinases (KINOMEscan panel) (Homo sapiens, UniProt Q92772); settings: CDKL2; NEW KINOMEscan
T3 sequence (Q92772 1-493): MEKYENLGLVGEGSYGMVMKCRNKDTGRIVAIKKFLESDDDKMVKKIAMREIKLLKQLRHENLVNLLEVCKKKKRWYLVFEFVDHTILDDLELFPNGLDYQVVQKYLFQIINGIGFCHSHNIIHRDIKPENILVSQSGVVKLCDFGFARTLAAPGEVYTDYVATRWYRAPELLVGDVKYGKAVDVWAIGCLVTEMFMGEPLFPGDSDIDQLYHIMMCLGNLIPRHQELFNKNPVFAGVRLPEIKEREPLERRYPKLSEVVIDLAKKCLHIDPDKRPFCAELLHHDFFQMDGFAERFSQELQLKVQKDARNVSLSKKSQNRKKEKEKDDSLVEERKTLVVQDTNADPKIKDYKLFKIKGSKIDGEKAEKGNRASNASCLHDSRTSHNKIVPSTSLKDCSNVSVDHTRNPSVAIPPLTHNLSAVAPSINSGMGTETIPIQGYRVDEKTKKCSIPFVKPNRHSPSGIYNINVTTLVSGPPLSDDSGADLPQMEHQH

[7] = molecular target: T4, kinases (KINOMEscan panel) (Homo sapiens, UniProt Q9C098); settings: kinase DCLK3; NEW KINOMEscan
T4 sequence (Q9C098 1-648): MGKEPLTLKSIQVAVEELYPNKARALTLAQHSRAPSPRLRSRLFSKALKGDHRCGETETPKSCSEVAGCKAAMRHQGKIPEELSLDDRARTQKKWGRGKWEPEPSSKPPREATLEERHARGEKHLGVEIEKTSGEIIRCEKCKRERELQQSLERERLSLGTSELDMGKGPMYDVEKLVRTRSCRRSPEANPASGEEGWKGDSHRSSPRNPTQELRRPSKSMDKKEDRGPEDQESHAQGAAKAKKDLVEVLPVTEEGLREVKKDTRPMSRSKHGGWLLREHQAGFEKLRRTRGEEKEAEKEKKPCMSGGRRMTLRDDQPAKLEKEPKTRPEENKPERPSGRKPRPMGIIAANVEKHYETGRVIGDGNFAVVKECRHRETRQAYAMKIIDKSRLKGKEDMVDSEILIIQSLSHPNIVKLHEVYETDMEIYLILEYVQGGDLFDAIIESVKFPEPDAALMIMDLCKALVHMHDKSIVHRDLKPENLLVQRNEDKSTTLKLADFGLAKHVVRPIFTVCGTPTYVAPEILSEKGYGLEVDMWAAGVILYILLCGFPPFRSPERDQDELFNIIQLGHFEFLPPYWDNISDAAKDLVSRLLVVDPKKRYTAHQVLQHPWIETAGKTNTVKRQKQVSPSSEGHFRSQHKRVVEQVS

kinases (KINOMEscan panel) (Homo sapiens, UniProt P49137), sequence (P49137 whole entry): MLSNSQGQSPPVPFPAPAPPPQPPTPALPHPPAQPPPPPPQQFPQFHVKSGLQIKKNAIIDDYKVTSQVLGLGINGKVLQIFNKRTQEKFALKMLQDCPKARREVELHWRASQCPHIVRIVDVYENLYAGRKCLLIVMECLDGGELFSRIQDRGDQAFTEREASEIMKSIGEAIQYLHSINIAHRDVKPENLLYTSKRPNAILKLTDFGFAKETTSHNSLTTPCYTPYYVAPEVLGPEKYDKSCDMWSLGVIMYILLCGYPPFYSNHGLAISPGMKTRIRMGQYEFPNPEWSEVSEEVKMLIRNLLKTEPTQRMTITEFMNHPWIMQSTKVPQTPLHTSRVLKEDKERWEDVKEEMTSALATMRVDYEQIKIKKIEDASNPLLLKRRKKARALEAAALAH
kinases (KINOMEscan panel) (Homo sapiens, UniProt P10721, L576P), sequence (P10721 26-976 L576P): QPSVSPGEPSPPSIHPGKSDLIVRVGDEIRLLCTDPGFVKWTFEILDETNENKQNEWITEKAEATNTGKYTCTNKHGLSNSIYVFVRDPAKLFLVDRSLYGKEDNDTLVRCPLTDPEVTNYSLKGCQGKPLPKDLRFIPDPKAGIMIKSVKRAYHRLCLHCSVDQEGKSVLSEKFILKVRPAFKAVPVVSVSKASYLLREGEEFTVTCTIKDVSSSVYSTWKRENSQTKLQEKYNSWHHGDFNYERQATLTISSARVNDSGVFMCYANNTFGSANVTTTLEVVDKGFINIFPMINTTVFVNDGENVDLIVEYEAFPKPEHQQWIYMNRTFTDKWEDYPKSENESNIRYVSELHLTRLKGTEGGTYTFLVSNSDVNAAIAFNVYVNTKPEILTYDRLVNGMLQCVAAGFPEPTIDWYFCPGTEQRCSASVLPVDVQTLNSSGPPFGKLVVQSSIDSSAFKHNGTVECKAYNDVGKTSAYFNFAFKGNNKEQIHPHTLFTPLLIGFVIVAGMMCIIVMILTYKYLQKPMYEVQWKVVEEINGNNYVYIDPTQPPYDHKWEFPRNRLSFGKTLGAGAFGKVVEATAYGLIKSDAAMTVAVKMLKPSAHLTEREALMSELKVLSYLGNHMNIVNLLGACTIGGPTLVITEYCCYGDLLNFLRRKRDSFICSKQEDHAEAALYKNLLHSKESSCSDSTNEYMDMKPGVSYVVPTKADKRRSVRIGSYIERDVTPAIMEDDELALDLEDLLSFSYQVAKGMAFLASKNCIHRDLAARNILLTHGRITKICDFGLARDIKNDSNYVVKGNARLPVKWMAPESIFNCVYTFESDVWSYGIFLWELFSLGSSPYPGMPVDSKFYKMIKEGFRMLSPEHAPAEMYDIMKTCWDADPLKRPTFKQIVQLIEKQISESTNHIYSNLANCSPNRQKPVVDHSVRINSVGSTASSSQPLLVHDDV

Which results are given for `Cc1cccc(-c2nc(Nc3ccc4nn(C)cc4c3)c3ccccc3n2)n1` [NK167]?
KINOMEscan KIT(L576P) [1]: 3; KINOMEscan SYK [2]: 0; KINOMEscan MAPKAPK2 ([3]; kinase MAPKAPK2, NEW KINOMEscan): 0; KINOMEscan MAP4K3 [4]: 20; KINOMEscan HIPK4 [5]: 7; KINOMEscan CDKL2 [6]: 0; KINOMEscan DCLK3 [7]: 10

For `Cc1cccc(-c2nc(N(C)c3ccc4ncsc4c3)c3ccccc3n2)n1` [NK-161], which “KINOMEscan KIT(L576P)” value [1] is on record?
Its value is 0.

What about the “KINOMEscan SYK” value [2] of the same molecule?
The value was 6.

And the “KINOMEscan MAPKAPK2” value [3]?
Its value is 0.

What about the “KINOMEscan MAP4K3” value [4] of the same molecule?
Its value is 22.

What about the “KINOMEscan HIPK4” value [5] of the same molecule?
Its value is 25.

And the “KINOMEscan CDKL2” value [6]?
The value was 0.

And the “KINOMEscan DCLK3” value [7]?
Its value is 14.
